One data set concerns AhR pathway. Put plainly: Target profiling. It is filed as cell-based. Conditions: intestinal human colon adenocarcinoma.
The next data set has as its system AhR target gene, cyp1a1. In words: Expression of AhR target gene in keratinocytes and leukocytes. It is filed as cell-based. Conditions: primary human keratinocytes, and human or rodent leukocytes.
Data set [1] can be described thus: Solubility of the active ingredient in different solvents. It is filed as physicochemical. As for the experimental part: The solubility of the active ingredient in different solvents was determined. […] The following formulations were prepared with 5%, 10%, 15% and 20% MCT (Formulations 15-18). Two formulations (Formulations 19 and 20) were also prepared where Polawax (a proprietary blend of cetostearyl alcohol and emulsifiers) was replaced with cetostearyl alcohol and additional emulsifier.

The nature of data set [2]: 28 day twice daily topical administration: toxicokinetics, skin concentrations, dermal irritancy and toxicity. In kind it is in vivo, Göttingen minipigs. As for the experimental part:
Following dose application on each dosing day, the dose sites were semi-occluded for approximately 20 ± 1 hours from the first dose and then gently washed before the next dose was applied.

The conditions of data set [3]: Gao et al. 2011; cited from earlier work.
The mark [4] stands for this setting: minipig, topical or ocular, 60 mg/kg/day.

On to `CC(C)c1c(O)cc(/C=C/c2ccccc2)cc1O` [3,5-Dihydroxy-4-isopropyl-trans-stilbene], for which, in the data set on AhR pathway, the “effect on the AhR pathway” value was “activator”. For the same molecule, in the data set on AhR target gene, cyp1a1, the “expression of the AhR target gene, cyp1a1” value is reported as “induce the expression”. In addition, the solubility entry in data set [1] (in medium chain triglycerides (MCT)) is “good solubility”; in data set [1] (in water), “not soluble in water”. In addition, the “No Observed Adverse Effect Level (NOAEL) for dermal irritation or systemic toxicity” value in data set [2] (28 days, twice daily topical, ~10% of total body surface area, highest dose tested) is recorded as 3 % (w/w). In addition, in data set [2] (Male, 60 mg/kg/day, 40320 min), the “Cmax Day 28” value is 0.845 ng/mL. Further, the “dermal irritation and systemic toxicity” value in data set [2] (minipig, in vivo) is “no dermal irritation or systemic toxicity”. For the same molecule, in data set [2] (setting [4]), the “gender-averaged skin concentration at necropsy, epidermis/upper dermis” value is 8265 ng/g. For the same molecule, the “gender-averaged skin concentration at necropsy, lower dermis” value in data set [2] (setting [4]) was 1830 ng/g. For the same molecule, the “sensitivity to oxidation and photo degradation” value in data set [3] was “sensitive to oxidation and photo degradation”.

The values above are taken from EP4806427A2, “TOPICAL PHARMACEUTICAL COMPOSITIONS” (priority 2015, dated 2016).
